Experimental data reported in paper PMC7413254 (Nature Communications, 2020).
Substitutions are numbered along the chain they refer to. Where no end group is shown, it is not given here.

Legend:
[1] = target: T1, PfCRT^7G8 in C6^7G8 parasites (Plasmodium falciparum, UniProt Q8IBZ9, A220S/C72S/I351M/I356L/K76T/N326D); assay: P. falciparum H+-efflux assay (rate of DV alkalinisation after concanamycin A); type: cell-based; settings: C67G8; for Effect on rate of DV alkalinisation / H+ leak (in words): test solute 10 μM
T1 construct: PfCRT also functions as a peptide transporter within its native environment of the DV membrane; expressed in transfected cells; host or cells: P. falciparum pfcrt transfectant line C6^7G8 (saponin-isolated trophozoites)
T1 sequence (Q8IBZ9 1-424 C72S/K76T/A220S/N326D/I351M/I356L): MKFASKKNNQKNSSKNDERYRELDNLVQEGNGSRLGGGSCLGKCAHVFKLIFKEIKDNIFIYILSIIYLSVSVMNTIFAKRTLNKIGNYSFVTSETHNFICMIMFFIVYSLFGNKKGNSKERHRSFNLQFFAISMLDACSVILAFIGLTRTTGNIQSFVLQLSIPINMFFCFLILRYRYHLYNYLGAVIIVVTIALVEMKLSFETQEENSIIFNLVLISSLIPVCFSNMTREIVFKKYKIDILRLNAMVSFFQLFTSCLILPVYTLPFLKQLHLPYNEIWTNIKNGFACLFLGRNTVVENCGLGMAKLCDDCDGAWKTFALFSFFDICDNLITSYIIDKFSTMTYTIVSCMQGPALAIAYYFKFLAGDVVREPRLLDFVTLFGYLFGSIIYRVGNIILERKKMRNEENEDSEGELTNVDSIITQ

[2] = target: T2, PfCRT^Dd2 in C4^Dd2 parasites (Plasmodium falciparum, UniProt Q8IBZ9, A220S/I356T/K76T/M74I/N326S/N75E/Q271E/R371I); assay: as above; type: cell-based; settings: C4Dd2; for Effect on rate of DV alkalinisation / H+ leak (in words): test solute 10 μM
T2 construct: PfCRT also functions as a peptide transporter within its native environment of the DV membrane; expressed in transfected cells; host or cells: P. falciparum pfcrt transfectant line C4^Dd2 (saponin-isolated trophozoites)
T2 sequence (Q8IBZ9 1-424 M74I/N75E/K76T/A220S/Q271E/N326S/I356T/R371I): T1 sequence (Q8IBZ9 1-424 C72S/K76T/A220S/N326D/I351M/I356L) with S72C, M74I, N75E, Q271E, D326S, M351I, L356T, R371I

[3] = tested on: C4^Dd2 versus C2^GC03 infected erythrocytes; assay: Peptidomic analysis, peptide levels in C4^Dd2 relative to C2^GC03 parasites (LC-MS); type: cell-based, Plasmodium falciparum
PfNT1 = target: T3, PfNT1 (Plasmodium falciparum, UniProt Q8IDM6); assay: [3H]VF-6 transport (efflux) from injected Xenopus oocytes; type: cell-based; settings: trans-inhibition, treatment 45 mM
T3 construct: expressed in transfected cells; host or cells: Xenopus laevis oocytes (stage V-VI), cRNA-injected

[4] = Peptides tested before peptidomic data was obtained

T3 sequence (Q8IDM6 whole entry): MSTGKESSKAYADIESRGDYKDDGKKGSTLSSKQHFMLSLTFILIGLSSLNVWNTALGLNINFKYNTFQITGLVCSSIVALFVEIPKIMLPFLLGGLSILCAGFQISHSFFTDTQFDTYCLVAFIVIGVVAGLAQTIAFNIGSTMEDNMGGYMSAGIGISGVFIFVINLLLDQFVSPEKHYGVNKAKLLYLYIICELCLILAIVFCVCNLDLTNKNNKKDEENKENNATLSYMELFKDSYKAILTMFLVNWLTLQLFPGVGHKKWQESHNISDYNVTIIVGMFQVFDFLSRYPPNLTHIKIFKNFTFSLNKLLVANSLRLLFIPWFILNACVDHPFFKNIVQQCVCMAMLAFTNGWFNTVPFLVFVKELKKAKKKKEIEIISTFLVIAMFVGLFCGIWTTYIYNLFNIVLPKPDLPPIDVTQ

Molecule: CCN(CC)CCCC(C)Nc1ccnc2cc(Cl)ccc12 (stereo not drawn) [CQ, chloroquine, reference compound]
- Effect on rate of DV alkalinisation / H+ leak (in words) [1]: increase
- Effect on rate of DV alkalinisation / H+ leak (in words) [2]: increase

Molecule: N[C@@H](Cc1c[nH]cn1)C(=O)O [L-histidine]
- Effect on rate of DV alkalinisation / H+ leak (in words) [1]: without effect
- Effect on rate of DV alkalinisation / H+ leak (in words) [2]: without effect

Molecule: CC(C)(C)NC(=O)[C@@H]1C[C@@H]2CCCC[C@@H]2CN1C[C@@H](O)[C@H](Cc1ccccc1)NC(=O)[C@H](CC(N)=O)NC(=O)c1ccc2ccccc2n1 [Saquinavir, saquinavir, reference compound]
- Maximum rate of peptide mimic-induced DV alkalinization ([1]; mean ± SEM, n = 5, SEM): 0.022 ±0.004 fluorescence ratio/s
- Effect on rate of DV alkalinisation / H+ leak (in words) [1]: increased the rate of DV alkalinisation
- Maximum rate of peptide mimic-induced DV alkalinization ([2]; mean ± SEM, n = 5, SEM): 0.011 ±0.003 fluorescence ratio/s
- Effect on rate of DV alkalinisation / H+ leak (in words) [2]: increased the rate of DV alkalinisation

Molecule: DPVN [DN-4]
- Assignment as substrate or not a substrate based on accumulation ratios from peptidomic data ([3]; Peptides tested after peptidomic data was obtained): substrate

Molecule: DPVN [VF-6-derived peptide]
- [3H]VF-6 transport, PfNT1 (% PfCRT3D7 control) (PfNT1; Experiment 1): 3.26 % PfCRT3D7 control
- [3H]VF-6 transport, PfNT1 (% PfCRT3D7 control) (PfNT1; Experiment 2): 3.27 % PfCRT3D7 control
- [3H]VF-6 transport, PfNT1 (% PfCRT3D7 control) (PfNT1; Experiment 3): 3.74 % PfCRT3D7 control
- [3H]VF-6 transport, PfNT1 (% PfCRT3D7 control) (PfNT1; Experiment 4): 3.42 % PfCRT3D7 control
- [3H]VF-6 transport, PfNT1 (% PfCRT3D7 control) (PfNT1; Experiment 5): 3.57 % PfCRT3D7 control

Molecule: DPVNF [VF-6-derived peptide]
- [3H]VF-6 transport, PfNT1 (% PfCRT3D7 control) (PfNT1; Experiment 1): 3.26 % PfCRT3D7 control
- [3H]VF-6 transport, PfNT1 (% PfCRT3D7 control) (PfNT1; Experiment 2): 3.36 % PfCRT3D7 control
- [3H]VF-6 transport, PfNT1 (% PfCRT3D7 control) (PfNT1; Experiment 3): 3.25 % PfCRT3D7 control
- [3H]VF-6 transport, PfNT1 (% PfCRT3D7 control) (PfNT1; Experiment 4): 3.79 % PfCRT3D7 control
- [3H]VF-6 transport, PfNT1 (% PfCRT3D7 control) (PfNT1; Experiment 5): 3.25 % PfCRT3D7 control

Molecule: PENF [PEF-4]
- Assignment as substrate or not a substrate based on accumulation ratios from peptidomic data [3, 4]: substrate

Molecule: PHFD [PD-4]
- Assignment as substrate or not a substrate based on accumulation ratios from peptidomic data [3, 4]: substrate

Molecule: PVNF [VF-6-derived peptide]
- [3H]VF-6 transport, PfNT1 (% PfCRT3D7 control) (PfNT1; Experiment 1): 4.26 % PfCRT3D7 control
- [3H]VF-6 transport, PfNT1 (% PfCRT3D7 control) (PfNT1; Experiment 2): 4.27 % PfCRT3D7 control
- [3H]VF-6 transport, PfNT1 (% PfCRT3D7 control) (PfNT1; Experiment 3): 4.41 % PfCRT3D7 control
- [3H]VF-6 transport, PfNT1 (% PfCRT3D7 control) (PfNT1; Experiment 4): 3.17 % PfCRT3D7 control
- [3H]VF-6 transport, PfNT1 (% PfCRT3D7 control) (PfNT1; Experiment 5): 4.26 % PfCRT3D7 control

Molecule: VDPVN [VF-6-derived peptide]
- [3H]VF-6 transport, PfNT1 (% PfCRT3D7 control) (PfNT1; Experiment 1): 3.27 % PfCRT3D7 control
- [3H]VF-6 transport, PfNT1 (% PfCRT3D7 control) (PfNT1; Experiment 2): 3.32 % PfCRT3D7 control
- [3H]VF-6 transport, PfNT1 (% PfCRT3D7 control) (PfNT1; Experiment 3): 3.39 % PfCRT3D7 control
- [3H]VF-6 transport, PfNT1 (% PfCRT3D7 control) (PfNT1; Experiment 4): 3.68 % PfCRT3D7 control
- [3H]VF-6 transport, PfNT1 (% PfCRT3D7 control) (PfNT1; Experiment 5): 3.32 % PfCRT3D7 control

Molecule: VDPVNF [VF-6]
- [3H]VF-6 transport, PfNT1 (% PfCRT3D7 control) (PfNT1; Experiment 1): 3.58 % PfCRT3D7 control
- [3H]VF-6 transport, PfNT1 (% PfCRT3D7 control) (PfNT1; Experiment 2): 3.28 % PfCRT3D7 control
- [3H]VF-6 transport, PfNT1 (% PfCRT3D7 control) (PfNT1; Experiment 3): 3.22 % PfCRT3D7 control
- [3H]VF-6 transport, PfNT1 (% PfCRT3D7 control) (PfNT1; Experiment 4): 4.26 % PfCRT3D7 control
- [3H]VF-6 transport, PfNT1 (% PfCRT3D7 control) (PfNT1; Experiment 5): 4.11 % PfCRT3D7 control
